The nature of data set [1]: In vitro cytotoxicity by MTT assay, HEK 293. It counts as cell-based, human. To be noted: human, HEK 293 cells, read-out: % cytotoxicity (100 − % cell survival) of HEK 293 cell line. In short, it runs like this:
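First, trypsinized cells went into wells at roughly 10,000 per well for 24 h. Next, medium was replaced with test compounds for 72 h at 37 °C. Finally, MTT was added for 4 h and the propanol-solubilized formazan read at 490 nm.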
Background: Tetrazolium assays rely on reduction of a dye to a coloured formazan, in cell work by metabolically active cells.

The nature of data set [2]: Total antioxidant activity (ABTS radical cation scavenging). It counts as biochemical. To be noted: Conc. ± SD; three independent experiments in duplicate; standard trolox; read-out: IC50 inhibitory concentration, ABTS^+ radical. The protocol: The ability of the test sample to scavenge 2,2′-azinobis-(3-ethylbenzothiazoline-6-sulphonic acid) (ABTS^·+) radical cation was compared with 6-hydroxy-2,5,7,8-tetramethylchroman-2-carboxylic acid (trolox) standard (Chang et al., [2007]; Erel, [2004]; Re et al., [1999]). The ABTS^·+ radical cation was pregenerated by mixing ABTS stock solution (7 mM) with potassium persulphate (2.45 mM) (final concentration) and incubating for 12–16 h in the dark at room temperature until the reaction was complete and the absorbance was stable. The absorbance of the ABTS^·+ solution was equilibrated to 0.70 (±0.02) by diluting with water at room temperature, then 1 mL of solution was mixed with 10 μL of the test sample (0.05–10 mg/mL), and the absorbance was measured at 734 nm after 6 min. All experiments were repeated three times. The percentage inhibition of absorbance was calculated and plotted as a function of the concentration of standard and sample to determine the trolox equivalent antioxidant concentration (TEAC). To calculate the TEAC, the gradient of the plot for the sample was divided by the gradient of the plot for trolox. The IC50 inhibitory concentration (nM/mL) values of tested compounds are depicted in Table 1. The ABTS^·+ radical scavenging activity of the samples was expressed as S%=[(Acontrol-Asample)/Acontrol]×100 where A control is the absorbance of the blank control (ABTS^·+ solution without test sample), and A sample is the absorbance of the test sample.

Data set [3] concerns HEK 293, M468 and NCI-H226. The experiment in a line: In vitro cytotoxicity by MTT assay, summary over all cell lines. The data set is classed as cell-based. To be noted: on all cell lines. The method, then:
The cancer cell line cultures of HEK 293 ([…]), BT474 (breast cancer cell line) and NCI-H226 (lung cancer) were obtained from Pasteur Institute of India, Coonoor, India, and were cultured in RPMI-1640 and 10 % heat-[…] New born calf serum with antibiotics [penicillin ([…]), streptomycin (100 μg/mL) and amphotericin B (25 μg/mL)]. The cells were maintained at 37 °C in a humidified atmosphere with 5 % CO2 and were subcultured twice a week.
The monolayer cell culture (100 μL) was trypsinized, and the cell count was adjusted to […] using medium containing 10 % new born calf serum. To each well of the 96-well microtitre plate, the diluted cell suspension (approximately 10,000 cells) (0.1 mL) was added and kept for 24 h in incubator at 37 °C in 5 % CO2 atmosphere for cell monolayer formation. After 24 h, when a partial monolayer was formed at the bottom of the well, the supernatant was flicked off, the monolayer was washed once, and different drugs, i.e. synthesized compounds (100 μL), were added to the cells in microtitre plates. The plates were then incubated at 37 °C for 3 days in 5 % CO2 atmosphere, and microscopic examination was carried out and observations recorded every 24 h. After 72 h, the sample solution in the wells was flicked off; MTT dye ([…]) was added to each well; plates were gently shaken and incubated for 4 h at 37 °C in 5 % CO2 incubator. The supernatant was removed and propanol (50 μL) was added; the plates were gently shaken to solubilize the formed formazan. The absorbance was measured using a microplate reader at a wavelength of 490 nm (Edmondson et al., [1988]; Prasad et al., [2005]; Chiruvella et al., [2008]; Chang et al., [2007]).

Here are results for eight compounds from publication PMC3973950, “Synthesis of 5-arylidine amino-1,3,4-thiadiazol-2-[(N-substituted benzyol)]sulphonamides endowed with potent antioxidants and anticancer activity induces growth inhibition in HEK293, BT474 and NCI-H226 cells” (Medicinal Chemistry Research, 2013).

The structures appear in SMILES notation.

As to `O=C(NS(=O)(=O)c1nnc(N=Cc2ccccc2)s1)c1ccccc1` [Compound 9a, N-{[5-(Benzylidenamino)-1,3,4-thiadiazol-2-yl]sulphonyl} benzamide], in data set [1], the cytotoxicity at 72 h, 0.005 µM amounted to 37.4%; the cytotoxicity at 72 h, 0.015 µM worked out at 38.2%; the cytotoxicity at 72 h, 0.045 µM stood at 39.8%; the cytotoxicity at 72 h, 0.13 µM came out at 40.7%. Also, in data set [1], the cytotoxicity at 72 h, 0.41 µM was found to be 42.4%; the cytotoxicity at 72 h, 1.23 µM was found to be 43.1%; the cytotoxicity at 72 h, 3.7 µM came to 44.2%; the cytotoxicity at 72 h, 11.11 µM was found to be 45.6%. In data set [1], the cytotoxicity at 72 h, 33.33 µM amounted to 46.2% and the cytotoxicity at 72 h, 100 µM is 50.6%. In data set [2], the IC50 worked out at 73.3 ± 7.05 µM.
Regarding `O=C(NS(=O)(=O)c1nnc(N=Cc2ccc(Cl)cc2)s1)c1ccccc1` [Compound 9b, N-({5-[(4-Chlorobenzylidene)amino]-1,3,4-thiadiazol-2-yl}sulfonyl)benzamide], the “cytotoxic activity compared with all synthesized compounds” value in data set [3] was “more potent”. In data set [1], the cytotoxicity at 72 h, 0.005 µM turned out to be 33.2%; the cytotoxicity at 72 h, 0.015 µM was found to be 34.1%; the cytotoxicity at 72 h, 0.045 µM turned out to be 34.6%; the cytotoxicity at 72 h, 0.13 µM is 36.6%. In data set [1], the cytotoxicity at 72 h, 0.41 µM turned out to be 37.7%; the cytotoxicity at 72 h, 1.23 µM was found to be 38%; the cytotoxicity at 72 h, 3.7 µM was 38.2%; the cytotoxicity at 72 h, 11.11 µM came to 38.6%. For the same compound, in data set [1], the cytotoxicity at 72 h, 33.33 µM was 38.9% and the cytotoxicity at 72 h, 100 µM came to 40.7%. Also, the IC50 in data set [2] worked out at 93.3 ± 10.7 µM.
For `COc1ccccc1C=Nc1nnc(S(=O)(=O)NC(=O)c2ccccc2)s1` [Compound 9c, N-({5-[(2-Methoxybenzylidene)amino]-1,3,4-thiadiazol-2-yl}sulfonyl)benzamide], the “cytotoxic activity compared with all synthesized compounds” value in data set [3] is on record as “more potent”. Moreover, in data set [1], the cytotoxicity at 72 h, 0.005 µM was found to be 36.8%; the cytotoxicity at 72 h, 0.015 µM is 38.2%; the cytotoxicity at 72 h, 0.045 µM is 40.3%; the cytotoxicity at 72 h, 0.13 µM was determined as 42.1%. In data set [1], the cytotoxicity at 72 h, 0.41 µM was found to be 42.9%; the cytotoxicity at 72 h, 1.23 µM was 43.1%; the cytotoxicity at 72 h, 3.7 µM was 44.3%; the cytotoxicity at 72 h, 11.11 µM turned out to be 45.9%. In data set [1], the cytotoxicity at 72 h, 33.33 µM was found to be 47.4% and the cytotoxicity at 72 h, 100 µM stood at 52.3%. Moreover, the IC50 in data set [2] amounted to 196 ± 16.6 µM.
For the compound `COc1ccc(C=Nc2nnc(S(=O)(=O)NC(=O)c3ccccc3)s2)cc1` [Compound 9d, N-({5-[(4-Methoxybenzylidene)amino]-1,3,4-thiadiazol-2-yl}sulfonyl)benzamide], in data set [1], the cytotoxicity at 72 h, 0.005 µM was found to be 30.6%; the cytotoxicity at 72 h, 0.015 µM worked out at 32.6%; the cytotoxicity at 72 h, 0.045 µM turned out to be 33.9%; the cytotoxicity at 72 h, 0.13 µM is 34.8%. Besides, in data set [1], the cytotoxicity at 72 h, 0.41 µM amounted to 34.8%; the cytotoxicity at 72 h, 1.23 µM stood at 35.5%; the cytotoxicity at 72 h, 3.7 µM is 35.8%; the cytotoxicity at 72 h, 11.11 µM was 36.3%. Besides, in data set [1], the cytotoxicity at 72 h, 33.33 µM amounted to 38.2% and the cytotoxicity at 72 h, 100 µM came out at 38.9%. Moreover, the IC50 in data set [2] was 55.6 ± 6.98 µM.
Turning to `O=C(NS(=O)(=O)c1nnc(N=Cc2ccc(O)cc2)s1)c1ccccc1` [Compound 9e, N-({5-[(4-Hydroxybenzylidene)amino]-1,3,4-thiadiazol-2-yl}sulfonyl)benzamide], in data set [1], the cytotoxicity at 72 h, 0.005 µM amounted to 25.3%; the cytotoxicity at 72 h, 0.015 µM was 26.7%; the cytotoxicity at 72 h, 0.045 µM amounted to 26.6%; the cytotoxicity at 72 h, 0.13 µM turned out to be 28.3%. Further, in data set [1], the cytotoxicity at 72 h, 0.41 µM was 29.8%; the cytotoxicity at 72 h, 1.23 µM was determined as 30.3%; the cytotoxicity at 72 h, 3.7 µM is 31.4%; the cytotoxicity at 72 h, 11.11 µM was 34.2%. Further, in data set [1], the cytotoxicity at 72 h, 33.33 µM was 37.6% and the cytotoxicity at 72 h, 100 µM was 39.6%. In addition, the IC50 in data set [2] was 47.9 ± 9.9 µM.
As for `O=C(NS(=O)(=O)c1nnc(N=Cc2ccccc2O)s1)c1ccccc1` [Compound 9f, N-({5-[(2-Hydroxybenzylidene)amino]-1,3,4-thiadiazol-2-yl}sulfonyl)benzamide], in data set [1], the cytotoxicity at 72 h, 0.005 µM worked out at 32.5%; the cytotoxicity at 72 h, 0.015 µM worked out at 33.1%; the cytotoxicity at 72 h, 0.045 µM is 34%; the cytotoxicity at 72 h, 0.13 µM amounted to 35.1%. In data set [1], the cytotoxicity at 72 h, 0.41 µM was 36.4%; the cytotoxicity at 72 h, 1.23 µM was found to be 37.1%; the cytotoxicity at 72 h, 3.7 µM amounted to 37.4%; the cytotoxicity at 72 h, 11.11 µM was 37.9%. Also, in data set [1], the cytotoxicity at 72 h, 33.33 µM was 39.8% and the cytotoxicity at 72 h, 100 µM was determined as 42.8%. Besides, the IC50 in data set [2] was found to be 207 ± 17.4 µM.
As to `COc1cc(C=Nc2nnc(S(=O)(=O)NC(=O)c3ccccc3)s2)ccc1O` [Compound 9g, N-({5-[(4-Hydroxy-3-methoxybenzylidene)amino]-1,3,4-thiadiazol-2-yl}sulfonyl)benzamide], the “cytotoxic activity compared with all synthesized compounds” value in data set [3] is given as “less activity”. For the same compound, in data set [1], the cytotoxicity at 72 h, 0.005 µM worked out at 25.4%; the cytotoxicity at 72 h, 0.015 µM was 27.6%; the cytotoxicity at 72 h, 0.045 µM came to 28.5%; the cytotoxicity at 72 h, 0.13 µM is 30.3%. Moreover, in data set [1], the cytotoxicity at 72 h, 0.41 µM is 31.1%; the cytotoxicity at 72 h, 1.23 µM is 32.1%; the cytotoxicity at 72 h, 3.7 µM was 32.8%; the cytotoxicity at 72 h, 11.11 µM is 33.5%. Further, in data set [1], the cytotoxicity at 72 h, 33.33 µM turned out to be 34.1% and the cytotoxicity at 72 h, 100 µM was 38.6%.
For `CN(C)c1ccc(C=Nc2nnc(S(=O)(=O)NC(=O)c3ccccc3)s2)cc1` [Compound 9h, N-[(5-{[4-(Dimethylamino)benzylidene]amino}-1,3,4-thiadiazol-2-yl)sulfonyl]benzamide], in data set [1], the cytotoxicity at 72 h, 0.005 µM amounted to 32%; the cytotoxicity at 72 h, 0.015 µM amounted to 32.9%; the cytotoxicity at 72 h, 0.045 µM is 34.5%; the cytotoxicity at 72 h, 0.13 µM turned out to be 34.8%. Besides, in data set [1], the cytotoxicity at 72 h, 0.41 µM came to 35.1%; the cytotoxicity at 72 h, 1.23 µM is 35.7%; the cytotoxicity at 72 h, 3.7 µM came to 35.7%; the cytotoxicity at 72 h, 11.11 µM amounted to 36.2%. Besides, in data set [1], the cytotoxicity at 72 h, 33.33 µM came to 36.9% and the cytotoxicity at 72 h, 100 µM amounted to 37.6%.
